Results published in patent US20110152267A1, “Compositions and Methods for Treating Hyperproliferative Disorders” (Texas Tech University System, priority 2009, published 2011).

Key:
Format in all cases: cell-based, human
[1] = tested on: A-172 Glioblastoma multiforme cell line; assay: DIMSCAN cytotoxicity, fenretinide + L-threo-sphinganines 3:1 (Example B4); set-up: key to CI (Combination Index): Chou-Talalay CI: <0.9 synergy, 0.9-1.1 additive, >1.1 antagonism; settings: 96 h
Method in brief: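 A-172 cells attached overnight, then exposed 96 h at 37 °C/5% CO2 to fenretinide and L-threo-sphinganines alone or at 3:1 fenretinide:sphinganine, 12 wells per concentration. Viable cells quantified by DIMSCAN (fluorescein diacetate 8 microgram/mL final, eosin Y quench); survival fraction vs vehicle controls; synergy by Chou-Talalay combination index.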

[2] = tested on: SJ-GBM2 Glioblastoma multiforme cell line; assay: DIMSCAN cytotoxicity, fenretinide + L-threo-sphinganines 3:1 (Example B7); set-up: key to CI (Combination Index): Chou-Talalay CI: <0.9 synergy, 0.9-1.1 additive, >1.1 antagonism; settings: 96 h
Method in brief: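 SJ-GBM2 cells exposed 96 h at 37 °C to fenretinide and L-threo-sphinganines, alone or 3:1 fenretinide:sphinganine, 12 wells per concentration. Viable cells stained with fluorescein diacetate (8 μg/mL final) with eosin Y quench, read by digital imaging; survival fraction vs vehicle, combination index by Chou-Talalay.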

[3] = tested on: PANC-1 pancreatic adenocarcinoma cell line; assay: DIMSCAN cytotoxicity, fenretinide + L-threo-sphinganines 3:1 (Example B18)
Method in brief: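 PANC-1 cells plated overnight, then exposed 96 h at 37 °C, 5% CO2 to fenretinide and L-threo-sphinganines alone or at 3:1 fenretinide:sphinganine, 12 wells per concentration. Viable cells read by DIMSCAN (fluorescein diacetate 8 microgram/mL final, eosin Y quench) as survival fraction versus vehicle controls; synergy scored by Chou-Talalay combination index.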

[4] = tested on: PC-3 prostate adenocarcinoma cell line; assay: DIMSCAN cytotoxicity, fenretinide + L-threo-sphinganines 3:1 (Example B17)
Method in brief: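 PC-3 cells were treated for 96 h at 37 °C with fenretinide plus L-threo-sphinganines at a 3:1 ratio, 12 wells per concentration. Viable cells were measured by DIMSCAN (fluorescein diacetate with eosin Y quenching) and expressed as survival fraction versus vehicle. Combination index was derived by Chou-Talalay analysis.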

[5] = tested on: RPMI-8226 Multiple Myeloma cell line; assay: DIMSCAN cytotoxicity, fenretinide + L-threo-sphinganines 3:1 (Example B2); settings: 96 h
Method in brief: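 Fenretinide and L-threo-sphinganines tested alone and at 3:1 fenretinide:sphinganine on RPMI-8226 cells, 12 wells per concentration, 96 h at 37° C. Viable cells quantified by fluorescein diacetate (8 microgram/mL) fluorescence with eosin Y quenching; survival fraction versus vehicle controls, synergy by Chou-Talalay combination index.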

[6] = tested on: T98G Glioblastoma multiforme cell line; assay: DIMSCAN cytotoxicity, fenretinide + L-threo-sphinganines 3:1 (Example B6); settings: 96 h
Method in brief: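 T98G cells (2000–10,000/well) attached overnight, then exposed 96 h at 37° C. to fenretinide and L-threo-sphinganines alone or at 3:1 fenretinide:sphinganine, 12 wells per concentration. Viable cells quantified by fluorescein diacetate (8 microgram/mL)/eosin Y digital imaging microscopy as survival fraction versus vehicle; synergy by Chou-Talalay Combination Index.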

[7] = tested on: U-266 Multiple Myeloma cell line; assay: DIMSCAN cytotoxicity, fenretinide + L-threo-sphinganines 3:1 (Example B3); settings: 96 h
Method in brief: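 Cells plated at 2000–10,000/well, attached overnight, then exposed 96 h at 37 °C to fenretinide and L-threo-sphinganines alone or at 3:1 fenretinide:sphinganine. Viable cells read by DIMSCAN (fluorescein diacetate 8 microgram/mL, eosin Y quench) as survival fraction versus vehicle; synergy scored by Chou-Talalay combination index.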

[8] = tested on: SJ-G2 Glioblastoma cell line; assay: DIMSCAN cytotoxicity, fenretinide + L-threo-sphinganines 3:1 (Example B8); settings: 96 h
Method in brief: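 SJ-G2 glioblastoma cells were exposed for 96 h at 37 °C to fenretinide and L-threo-sphinganines, alone and at a 3:1 fenretinide:sphinganine ratio, with 12 wells per concentration. Viable cells were measured by DIMSCAN (fluorescein diacetate uptake with eosin Y quench), giving survival fraction versus vehicle. Combination interaction was assessed by Chou-Talalay combination index.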

[9] = 4-HPR 1.5 μM + L-threo-sphinganine 0.5 μM
[10] = 4-HPR 3 μM + L-threo-sphinganine 1 μM
[11] = 4-HPR 6 μM + L-threo-sphinganine 2 μM
[12] = 4-HPR 9 μM + L-threo-sphinganine 3 μM

Compound: CCCCCCCCCCCCCCCCCC[C@H](O)[C@@H](N)CO [C21]
- CI (Combination Index) [1, 9]: 8.8
- Fa (fraction affected) [1, 9]: 0.006
- CI (Combination Index) [1, 10]: 1.6
- Fa (fraction affected) [1, 10]: 0.537
- CI (Combination Index) [1, 11]: 0.8
- Fa (fraction affected) [1, 11]: 0.996
- CI (Combination Index) [1, 12]: >0.1
- Fa (fraction affected) [1, 12]: 1.000
- CI (Combination Index) [2, 9]: 1.4
- Fa (fraction affected) [2, 9]: 0.131
- CI (Combination Index) [2, 10]: 1.9
- Fa (fraction affected) [2, 10]: 0.470
- CI (Combination Index) [2, 11]: 2.1
- Fa (fraction affected) [2, 11]: 0.946
- CI (Combination Index) [2, 12]: 2.0
- Fa (fraction affected) [2, 12]: 0.996
- CI [3, 9]: 2.5
- Fa [3, 9]: 0.111
- CI [3, 10]: 2.9
- Fa [3, 10]: 0.239
- CI [3, 11]: 1.6
- Fa [3, 11]: 0.784
- CI [3, 12]: 0.4
- Fa [3, 12]: 0.994
- CI [4, 9]: 1.7
- Fa [4, 9]: 0.215
- CI [4, 10]: 1.4
- Fa [4, 10]: 0.350
- CI [4, 11]: 1.6
- Fa [4, 11]: 0.479
- CI [4, 12]: 0.9
- Fa [4, 12]: 0.738
- CI (Combination Index) [5, 9]: 1.2
- Fa (fraction affected) [5, 9]: 0.517
- CI (Combination Index) [5, 10]: 1.6
- Fa (fraction affected) [5, 10]: 0.722
- CI (Combination Index) [5, 11]: 1.6
- Fa (fraction affected) [5, 11]: 0.955
- CI (Combination Index) [5, 12]: 1.1
- Fa (fraction affected) [5, 12]: 0.999
- CI (Combination Index) [6, 9]: 1.2
- Fa (fraction affected) [6, 9]: 0.574
- CI (Combination Index) [6, 10]: 1.0
- Fa (fraction affected) [6, 10]: 0.805
- CI (Combination Index) [6, 11]: 1.8
- Fa (fraction affected) [6, 11]: 0.832
- CI (Combination Index) [6, 12]: 0.1
- Fa (fraction affected) [6, 12]: 0.999
- CI (Combination Index) [7, 9]: 1.4
- Fa (fraction affected) [7, 9]: 0.225
- CI (Combination Index) [7, 10]: 1.5
- Fa (fraction affected) [7, 10]: 0.658
- CI (Combination Index) [7, 11]: 0.6
- Fa (fraction affected) [7, 11]: 0.996
- CI (Combination Index) [7, 12]: >0.1
- Fa (fraction affected) [7, 12]: 1
- CI (Combination Index) [8, 9]: 1.5
- Fa (fraction affected) [8, 9]: 0.118
- CI (Combination Index) [8, 10]: 1.9
- Fa (fraction affected) [8, 10]: 0.299
- CI (Combination Index) [8, 11]: 1.5
- Fa (fraction affected) [8, 11]: 0.809
- CI (Combination Index) [8, 12]: 0.5
- Fa (fraction affected) [8, 12]: 0.995
